This is an account of results in patent US7012098B2, “Inhibitors of inducible nitric oxide synthase for chemoprevention and treatment of cancers” (Pharmacia Corporation, priority 2001, dated 2006).

One data set relates to intestinal tumorigenesis. The settings on record: APC^Δ716 mice; cited from earlier work.
A further data set concerns the target T1, COX-1 (Rattus norvegicus, UniProt Q63921).
T1 sequence (Q63921 27-602): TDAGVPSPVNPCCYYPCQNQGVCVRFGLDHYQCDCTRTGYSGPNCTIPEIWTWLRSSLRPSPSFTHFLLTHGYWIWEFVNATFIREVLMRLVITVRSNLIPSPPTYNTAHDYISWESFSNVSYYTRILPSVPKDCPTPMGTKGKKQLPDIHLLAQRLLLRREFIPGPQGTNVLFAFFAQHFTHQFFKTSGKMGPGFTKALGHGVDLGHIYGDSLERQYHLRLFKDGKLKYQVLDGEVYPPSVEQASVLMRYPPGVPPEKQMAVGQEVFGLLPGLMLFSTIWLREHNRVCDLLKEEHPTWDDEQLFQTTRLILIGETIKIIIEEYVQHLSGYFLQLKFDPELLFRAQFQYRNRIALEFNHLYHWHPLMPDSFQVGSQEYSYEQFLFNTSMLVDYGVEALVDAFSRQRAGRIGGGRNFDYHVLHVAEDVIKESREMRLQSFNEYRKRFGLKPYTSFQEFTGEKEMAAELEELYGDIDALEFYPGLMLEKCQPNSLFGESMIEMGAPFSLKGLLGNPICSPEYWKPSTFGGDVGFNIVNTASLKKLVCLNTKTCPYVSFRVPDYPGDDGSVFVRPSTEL
The experiment in a line: Colonic mucosal COX-1 activity after dietary treatment. The settings on record: 1800 ppm in diet; AOM-treated rats, colonic mucosa; Mean ± SEM. In kind it is in vivo, male F344 rats. The method, then:
(§1) For determining COX-2 activity, proteins were preincubated with 50 μM of aspirin to block the activity of COX-1. After incubation at 37° C. for 15 min, the reaction was terminated by adding 40 μl of 0.2 M HCl. The COX-mediated metabolites of arachidonic acid were extracted with ethyl acetate (3×0.5 ml). The combined extracts were evaporated to dryness under N2, redissolved in chloroform, and subjected to thin layer chromatography on precoated TLC plastic plates (silica G 60, 20×20 cm, layer thickness 150 μm). […] The metabolites of ^14C-AA corresponding to PGE2, PGF2α, PGD2, 6-Keto PGF1α, and TXB2 were detected by their comigration (Rf-values) with authentic standards. The area of each metabolite was determined in a Bioscan System 200 image scanning counter (Bioscan Inc., Washington, D.C.) equipped with β-detector.

The next data set relates to AOM-induced colonic ACF. As to the kind of experiment: Chemopreventive effects in rats with azoxymethane-induced aberrant crypt foci. In kind it is in vivo, male F344 rats. The text has this:
In Vivo Assay of Chemopreventive Effects of Therapeutic Compounds in Rats with Azoxymethane-induced Aberrant Crypt Foci
Azoxymethane (AOM) (CAS:25843-45-2) was purchased from Ash Stevens (Detroit, Mich.). iNOS and COX-2 selective inhibitors were provided by Pharmacia, (St. Louis, […].). Sulindac, a non-selective inhibitor of COX-isoforms and a known inhibitor of colon carcinogenesis, was supplied by the Chemoprevention Branch of the National Cancer Institute (Bethesda, Md.). Weanling male F344 rats were purchased from Charles River Breeding Laboratories (Kingston, N.Y.). All ingredients of the semipurified diet were obtained from Dyets Inc., (Bethlehem, Pa.) and were stored at 4° C. until the experimental diets were prepared. The rats were held in quarantine for 1 week and had access to modified AIN-76A semipurified control diet (Reddy et al., Cancer Res. 50: 2562-2568, 1990, which is herein incorporated by reference.). They were randomly distributed into various dietary groups and were transferred to an animal holding room where they were housed, three rats to a plastic cage, under controlled conditions of a 12-h light/12-h dark cycle, 50% relative humidity and 21° C. room temperature. Experimental diets were prepared by mixing chemopreventive agents with modified AIN-76A control diet.
To quantify aberrant crypt foci, after a minimum of 24 h in buffered formalin, the colons were cut into 2-cm segments starting at the anus; for the next 5-10 min they were placed in a Petri dish containing 0.2% methylene blue in Krebs Ringer solution. They were then placed, mucosal side up, on a microscope slide and observed through a light microscope. Aberrant crypt foci were recorded according to standard procedures that are being used routinely in our laboratory (Rao et al., Carcinogenesis 21: 617-21, 2000; Rao et al., Cancer Res. 53:4182-88, 1993, which are herein incorporated by reference.). […] The parameters used to assess the aberrant crypts were their occurrence and multiplicity. Crypt multiplicity was determined as the number of crypts in each focus and categorized as containing up to 3, or 4 or more aberrant crypts/focus.

The test system of a further data set is NOS. As to the kind of experiment: Colonic mucosal NOS activity after dietary treatment. The settings on record: 1800 ppm in diet; AOM-treated rats, colonic mucosa; Mean ± SEM. In kind it is in vivo, male F344 rats. The method, then: (§2) In Vivo Assay of Modulation of Colonic Mucosal Activities of NOS and COX isoforms by iNOS and COX-2 Inhibitors
(§3) NOS and iNOS activities were determined in colonic samples as prepared and described above. Conversion of L-arginine to L-citrulline was measured by a modification of an earlier described method (Rao et al, Carcinogenesis 21, supra; Ambs et al., Cancer Res. 58:334-41, 1998, which is herein incorporated by reference). The assay was carried out by adding 100 μg sample protein to 150 μl of assay buffer [50 mM HEPES, 1 mM DTT, 1 mM MgCl2, 5 mg/L pepstatin A, 0.1 mM PMSF, and 3 mg/L aprotinin, pH 7.4] containing 70 μM arginine, 250,000 dpm L-[^3H]-arginine, 2 mM NADPH, 5μM tetrahydro biopterin, 5 μM flavin adenine dinucleotide, and 0.5 mM CaCi2 to measure total NOS activity, or 1 mM EGTA (without calcium) to determine Ca+^2-independent iNOS activity. After 30 min at 37° C., the reaction was stopped with 100 μl of 1M trichloroacetic acid. Then the samples were adjusted to pH 4.6 by adding 500 μl of 20 mM HEPES and loaded on to Dowex AG 50W-X8 resin columns. L-[^3H]-citrulline was eluted and separated on TLC. Radioactivity was counted by a BioScan Radiomatic detector. Results are expressed as pmol L-[^3H]-citrulline released/mg protein/min.

In the next data set the target is T2, COX-2 (Rattus norvegicus, UniProt P35355).
T2 sequence (P35355 18-604): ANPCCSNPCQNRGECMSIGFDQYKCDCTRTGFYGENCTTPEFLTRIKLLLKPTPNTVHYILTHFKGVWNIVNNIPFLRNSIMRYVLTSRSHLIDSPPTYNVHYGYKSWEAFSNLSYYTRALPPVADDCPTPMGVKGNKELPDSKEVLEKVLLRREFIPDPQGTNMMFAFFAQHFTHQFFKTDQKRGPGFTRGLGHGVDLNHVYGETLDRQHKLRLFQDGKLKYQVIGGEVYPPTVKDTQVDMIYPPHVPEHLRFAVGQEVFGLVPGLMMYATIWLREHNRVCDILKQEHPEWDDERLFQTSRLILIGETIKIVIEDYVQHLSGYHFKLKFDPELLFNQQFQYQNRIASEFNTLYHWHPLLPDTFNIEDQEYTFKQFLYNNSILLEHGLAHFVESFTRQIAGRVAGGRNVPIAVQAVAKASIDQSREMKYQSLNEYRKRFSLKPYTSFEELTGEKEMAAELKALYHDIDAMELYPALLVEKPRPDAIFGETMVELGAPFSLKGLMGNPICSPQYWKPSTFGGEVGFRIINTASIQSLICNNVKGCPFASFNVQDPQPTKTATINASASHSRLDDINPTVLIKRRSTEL
The experiment in a line: Colonic mucosal COX-2 activity after dietary treatment. In kind it is in vivo, male F344 rats. The settings on record: 1800 ppm in diet; AOM-treated rats, colonic mucosa; Mean ± SEM. On the procedure:
as §1

A further data set deals with iNOS (Rattus norvegicus, UniProt Q06518). The experiment in a line: Colonic mucosal iNOS activity after dietary treatment. In kind it is in vivo, male F344 rats. The method, then: as §2, §3
A further data set has as its target i-NOS (Homo sapiens, UniProt P35228). As to the kind of experiment: i-NOS inhibition, comparison with NIL amides. In kind it is biochemical. The following applies: compared with NIL amide or NIL dimethylamide.
Setting [1] is: 1800 ppm in diet, AOM-treated male F344 rats, Mean ± SEM.

Molecules are shown by their SMILES. Counter-ions that a name gives are not always drawn.

The melting point is the temperature of the solid-liquid transition.

Sequence of i-NOS (P35228 whole entry): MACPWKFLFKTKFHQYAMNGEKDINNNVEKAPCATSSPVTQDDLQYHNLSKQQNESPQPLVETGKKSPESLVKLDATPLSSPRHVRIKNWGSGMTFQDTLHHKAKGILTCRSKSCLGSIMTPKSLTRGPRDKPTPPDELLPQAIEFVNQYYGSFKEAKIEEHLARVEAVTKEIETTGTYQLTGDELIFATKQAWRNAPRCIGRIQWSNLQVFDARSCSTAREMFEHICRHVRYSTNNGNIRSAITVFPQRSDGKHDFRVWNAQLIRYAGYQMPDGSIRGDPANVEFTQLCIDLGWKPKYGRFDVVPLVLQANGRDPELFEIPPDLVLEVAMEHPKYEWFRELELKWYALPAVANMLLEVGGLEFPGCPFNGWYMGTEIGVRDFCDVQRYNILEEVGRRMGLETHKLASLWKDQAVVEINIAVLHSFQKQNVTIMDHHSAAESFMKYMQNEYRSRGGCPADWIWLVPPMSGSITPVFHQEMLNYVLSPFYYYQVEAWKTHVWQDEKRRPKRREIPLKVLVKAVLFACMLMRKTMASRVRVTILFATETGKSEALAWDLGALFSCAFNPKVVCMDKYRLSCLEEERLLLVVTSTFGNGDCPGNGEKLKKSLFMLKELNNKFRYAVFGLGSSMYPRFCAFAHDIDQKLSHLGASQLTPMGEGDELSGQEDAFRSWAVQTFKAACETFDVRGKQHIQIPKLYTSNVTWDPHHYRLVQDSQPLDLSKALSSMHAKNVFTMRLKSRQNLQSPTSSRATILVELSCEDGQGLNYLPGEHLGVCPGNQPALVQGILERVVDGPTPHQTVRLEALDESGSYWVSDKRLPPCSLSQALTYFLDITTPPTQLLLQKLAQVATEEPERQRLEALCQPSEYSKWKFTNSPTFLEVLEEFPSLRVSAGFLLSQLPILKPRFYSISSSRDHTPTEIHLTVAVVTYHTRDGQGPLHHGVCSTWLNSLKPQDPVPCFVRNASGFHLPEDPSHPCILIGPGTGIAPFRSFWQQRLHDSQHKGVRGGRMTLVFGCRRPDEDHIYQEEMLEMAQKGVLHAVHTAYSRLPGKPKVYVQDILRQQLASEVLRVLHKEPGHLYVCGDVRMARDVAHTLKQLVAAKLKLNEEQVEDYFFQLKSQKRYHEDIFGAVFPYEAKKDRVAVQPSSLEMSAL

For `CS(=O)(=O)c1ccc(C2=C(c3ccc(F)c(F)c3)C(=O)OC2)cc1` [MF-Tricyclic], the intestinal tumorigenesis result with intestinal tumorigenesis is “blocks”.

For the compound `N=C(N)NN` [aminoguanidine], the “COX-Activity, COX-1” value on COX-1 is 10.8 ± 1.9 pmoles [^14C]-AA metabolized/m. In addition, in the data set with AOM-induced colonic ACF (setting [1]), the “Foci containing 1 Crypt” value turned out to be 28.0 ± 2.4, the “Foci containing 2 Crypt” value amounted to 29.3 ± 1.3, the “Foci containing 3 Crypt” value worked out at 17.8 ± 1.0 and the “Foci containing ≧4 Crypts” value is on record as 14.6 ± 1.8. For the same compound, in the data set on AOM-induced colonic ACF (setting [1]), the “Total ACF incidence” value stood at 89.8 ± 4.5. Further, the “effect on AOM-induced total colonic ACF and multicrypt clusters of 4 or more crypts” value with AOM-induced colonic ACF (1,800 ppm, compared to control diet) is on record as “suppressed”. In addition, the “NOS Activity, NOS” value in the data set with NOS is 7.9 ± 1.7 pmoles [^3H]-citrulline/mg pro. The “COX-Activity, COX-2” value at COX-2 is 1.2 ± 0.2 pmoles [^14C]-AA metabolized/m. Also, at iNOS (1800 ppm), the “suppression of AOM-induced colonic mucosal iNOS activity” value was found to be 50%. In addition, at iNOS (1800 ppm in diet, AOM-treated rats, colonic mucosa, Mean ± SEM), the “NOS Activity, iNOS” value is 1.1 ± 0.1 pmoles [^3H]-citrulline/mg pro.

For the compound `CC(=N)NCCCC[C@H](N)C(=O)Nc1nnn[nH]1` [Example NN, 2S-amino-6-[(1-iminoethyl)amino]-N-(1H-tetrazol-5-yl)hexanamide, hydrate, dihydrochloride], at i-NOS, the i-NOS inhibitor potency result was “more potent”.

The compound `CC(=NO)NC/C(F)=C\CC[C@H](N)C(=O)O` [Example G, (2S,5E)-2-amino-6-fluoro-7-[(1-hydroximinoethyl)amino]-5-heptenoic acid] returned a melting point of 198 to 200 °C.
